According to the Deep4Chem optical property database:
Where “and” joins values, the source holds several entries; their conditions need not be identical. Equal values may be shown once. One block for each compound: values may come before it.

Assay: solvent given as SMILES

absorption maximum (in ClCCl): 337 nm
SMILES: COC(=O)C1=C(C(=O)OC)C2(c3cc([N+](=O)[O-])ccc3-c3ccc([N+](=O)[O-])cc32)C2(/C=C/c3ccccc3)c3cc(OC)c(OC)cc3CCN12 (stereo unspecified)

absorption maximum (in CC#N): 373 nm
SMILES: COc1ccc(/C=C(\C#N)c2nc(-c3ccc(Cl)cc3)cs2)cc1

absorption maximum (in CO): 339 nm
SMILES: CN1C2=Nc3n(C)c4ccccc4[n+]3CN2c2ccccc21

SMILES: CC(C)c1cc(C(C)C)c(B2c3ccccc3Oc3cc(-n4c5ccccc5c5c6c(c7ccccc7n6-c6ccccc6)c6c(c7ccccc7n6-c6ccccc6)c54)ccc32)c(C(C)C)c1
absorption maximum (in Cc1ccccc1): 458 nm

absorption maximum (in ClCCl): 557 nm
SMILES: CCCCCCOc1cc(N(CC)CC)ccc1/C=C(\C#N)c1ccc(/C=C/C(=C(C#N)C#N)c2ccc(N(c3ccccc3)c3ccccc3)cc2)s1

absorption maximum (in ClCCl): 359 nm
SMILES: COc1ccc(/C=C/c2cc(/C=C/c3ccc(OC)cc3)ncn2)cc1

absorption maximum (in ClCCl): 303 nm
SMILES: COc1ccc(-n2c3ccccc3c3c(C)cc4ccccc4c32)cc1

absorption maximum (in ClCCl): 350 nm
SMILES: CN(C)c1cccc(/C=C/c2ncc(-c3ccc(OCc4ccccc4)c(OCc4ccccc4)c3)o2)c1

absorption maximum (in C1CCOC1): 414.75 nm
SMILES: CCN(CC)c1ccc(-c2nc3c(nc2-c2ccc([B-](F)(c4c(C)cc(C)cc4C)c4c(C)cc(C)cc4C)cc2)c2ccccc2n3C)cc1

absorption maximum (in C1CCOC1): 337 nm
SMILES: CCCCn1c2ccc(-c3cccs3)cc2c2c1c1c3ccc(-c4cccs4)cc3n(CCCC)c1c1c3ccc(-c4cccs4)cc3n(CCCC)c21

absorption maximum (in C1CCCCC1): 352 nm
SMILES: CB1C=Cc2ccc3ccccc3c2N1

SMILES: Cc1cccc(C)c1
absorption maximum (in C1CCCCC1): 259.74 nm

absorption maximum (in C1CCOC1): 360 nm
SMILES: F[B-]1(F)OC(c2ccccc2)=C(c2ccccc2)c2sc3ccccc3[n+]21

absorption maximum (in CC#N): 342.13 nm
absorption maximum (in CCO): 335.73 nm
absorption maximum (in ClCCl): 341 nm
SMILES: CN(C)c1ccc(C#Cc2ccc3c(N(C)C)cc(-c4ccccc4)cc3c2)cc1

SMILES: CCCCCCCCC1(CCCCCCCC)c2cc(-c3ccc([N+](=O)[O-])cc3)ccc2-c2ccc(-c3ccc([N+](=O)[O-])cc3)cc21
absorption maximum (in C1CCCCC1): 357 nm
absorption maximum (in CCO): 368 nm
absorption maximum (in CN(C)C=O): 380 nm
absorption maximum (in CS(C)=O): 382 nm
absorption maximum (in Cc1ccccc1): 365 nm
absorption maximum (in ClC(Cl)Cl): 373 nm

absorption maximum (in ClC(Cl)Cl): 643 nm
SMILES: Cc1cc(C)c(C2=C3C=CC=[N+]3[B-]3(c4ccccc4)Oc4cc(O)cc5c6ccc(C)cc6c6cc2n3c6c45)c(C)c1 (stereo unspecified)

absorption maximum (in ClCCl): 431 nm
SMILES: CCCCCCCCCCCCCCCCCCOc1ccc([B-]23NC(c4ccccc4)=Nc4cccc([n+]42)N=C(c2ccccc2)N3)cc1

absorption maximum (in ClC(Cl)Cl): 349 nm
SMILES: O=c1oc2ccccc2cc1-c1cn2ccccc2n1

absorption maximum (in CC#N): 332 nm
SMILES: CN(C)c1ccc(-c2nc3cc(C(F)(F)F)ccc3n2-c2ccccc2)cc1

absorption maximum (in CC#N): 327 nm
absorption maximum (in ClCCl): 343 nm
SMILES: Cc1cc(-c2ccccc2C)cc(C)[o+]1

absorption maximum (in ClC(Cl)Cl): 658 nm
SMILES: F[B-]1(F)n2c(cc3sc4ccccc4c32)C(c2ccc(I)cc2)=C2C=c3sc4ccccc4c3=[N+]21

SMILES: O=S(=O)(c1ccccc1)c1ccc(-c2ccc3c(c2)c2cc(-c4ccc(S(=O)(=O)c5ccccc5)cc4)ccc2n3-c2ccccc2)cc1
absorption maximum (in CCCCCC): 343 nm
absorption maximum (in CN(C)C=O): 345 nm
absorption maximum (in CO): 343 nm
absorption maximum (in Cc1ccccc1): 340 nm
absorption maximum (in ClCCl): 343 nm

absorption maximum (in C1CCOC1): 344 nm
absorption maximum (in CC#N): 341 nm
absorption maximum (in ClC(Cl)Cl): 346 nm
absorption maximum (in ClCCl): 345 nm
SMILES: COc1ccc2cc(-c3ccc([N+](=O)[O-])cc3)ccc2c1

absorption maximum (in CC#N): 388 nm
SMILES: Cc1cc(C)c2nc3[nH]c(=O)[nH]c(=O)c3nc2c1

SMILES: CC(C)(C)c1cc(C(C)(C)C)c(-c2nnc(-c3ccc(-n4c5ccccc5c5ccccc54)cc3)o2)c(C(C)(C)C)c1
absorption maximum (in Cc1ccccc1): 340 nm

SMILES: CC1(C)c2ccccc2N(c2ccc(-c3nc([C@]45CC6CC(C[C@@H](C6)C4)C5)nc([C@]45C[C@H]6C[C@@H](C[C@H](C6)C4)C5)n3)cc2)c2ccccc21
absorption maximum (in Cc1ccccc1): 367.8 nm

SMILES: CCCCC1=Cc2c3ccc4cccc5ccc(c6cc(-c7ccccc7)n(c26)P1(=O)c1ccccc1)c3c45 (stereo unspecified)
absorption maximum (in C1CCCCC1): 430 nm
absorption maximum (in C1CCOC1): 430 nm
absorption maximum (in C1COCCO1): 430 nm
absorption maximum (in CC#N): 426 nm
absorption maximum (in CC(C)=O): 427 nm
absorption maximum (in CO): 426 nm
absorption maximum (in Cc1ccccc1): 433 nm
absorption maximum (in ClC(Cl)Cl): 431 nm
absorption maximum (in ClCCl): 430 nm

absorption maximum (in CC#N): 346 nm
SMILES: N#Cc1nn(-c2ccc(Cl)cc2)nc1N1CCCC1

absorption maximum (in CC#N): 335 nm
absorption maximum (in ClCCl): 341 nm
SMILES: COC(=O)c1cccc2c1C#Cc1c(NC(C)=O)cccc1OCCCO2

absorption maximum (in C1CCOC1): 356 nm
SMILES: COc1ccc(C(=Cc2ccc(C=O)cc2)c2ccc(OC)cc2)cc1

absorption maximum (in ClCCl): 380 nm
SMILES: c1ccc(N(c2ccccc2)c2ccc(-c3ncnc4ccccc34)cc2)cc1

SMILES: O=C1c2ccccc2C2=Cc3cccc[n+]3[B-](F)(F)N12
absorption maximum (in CCO): 391 nm
absorption maximum (in Cc1ccccc1): 399 nm
absorption maximum (in ClCCl): 396 nm and 385 nm

absorption maximum (in CC#N): 451 nm
absorption maximum (in CN(C)C=O): 488 nm
absorption maximum (in ClCCl): 476 nm
SMILES: CCN(CC)c1ccc(/C=N/c2cc3nc4ccccc4nc3cc2/N=C/c2ccc(N(CC)CC)cc2O)c(O)c1

absorption maximum (in ClC(Cl)Cl): 340 nm
SMILES: FC(F)(F)c1ccc(-c2ncc3ccccn23)cc1

SMILES: CN(C)c1ccc(C(=O)Nc2ccc([N+](=O)[O-])cc2)cc1
absorption maximum (in C1CCCCC1): 337 nm
absorption maximum (in C1CCOC1): 353 nm
absorption maximum (in CC#N): 354 nm
absorption maximum (in CCOCC): 345 nm

absorption maximum (in O): 425 nm
SMILES: O=C(O)CCCCCn1c2ccc(Br)cc2c(=O)c2cc(Br)ccc21

absorption maximum (in ClC(Cl)Cl): 448 nm
SMILES: Cc1c2c(c(C)c3ccccc13)-c1cc3nc4ccccc4nc3cc1-2

absorption maximum (in C1CCCCC1): 409 nm
absorption maximum (in CC#N): 409 nm
absorption maximum (in CO): 407 nm
absorption maximum (in ClCCl): 412 nm
SMILES: COc1c2ccccc2c(OC)c2c1c1cccc(OC)c1n2C

absorption maximum (in C1CCOC1): 330 nm
SMILES: C(=C(c1ccccc1)c1ccccc1)c1ccc(-c2cc(-c3ccc(C=C(c4ccccc4)c4ccccc4)cc3)c(-c3ccc(C=C(c4ccccc4)c4ccccc4)cc3)cc2-c2ccc(C=C(c3ccccc3)c3ccccc3)cc2)cc1

absorption maximum (in C1CCOC1): 447 nm
SMILES: CCCCCCCCCCCCOc1cc(C(=O)Nc2ccc(-c3ccc4c(c3)C(=O)c3cc(-c5ccc(NC(=O)c6cc(OCCCCCCCCCCCC)c(OCCCCCCCCCCCC)c(OCCCCCCCCCCCC)c6)cc5)ccc3-4)cc2)cc(OCCCCCCCCCCCC)c1OCCCCCCCCCCCC

absorption maximum (in ClCCl): 654 nm
SMILES: CC(C)[Si](C#Cc1c2cc3ccccc3cc2c(C#Cc2ccc(C(F)(F)F)cc2)c2cc3ccccc3cc12)(C(C)C)C(C)C

SMILES: COc1ccc(N(c2ccc(OC)cc2)c2cc3ccc4cc(B(c5c(C)cc(C)cc5C)c5c(C)cc(C)cc5C)cc5ccc(c2)c3c45)cc1
absorption maximum (in C1CCOC1): 399 nm
absorption maximum (in CC(C)=O): 395 nm
absorption maximum (in CCCCCC): 398 nm
absorption maximum (in Cc1ccccc1): 402 nm
absorption maximum (in ClC(Cl)Cl): 399 nm
absorption maximum (in ClCCl): 397 nm

absorption maximum (in ClCCl): 607 nm
SMILES: Cc1cc(C)c(-c2c3ccccc3c3ccc4cc5c(-c6c(C)cc(C)cc6C)c6ccccc6c6ccc7cc2c3c4c7c56)c(C)c1

absorption maximum (in CN(C)C=O): 605 nm
absorption maximum (in ClC(Cl)Cl): 605 nm
SMILES: O=C1C2=C3c4sccc4C=CN3C(=O)C2=C2c3sccc3C=CN12

absorption maximum (in ClCCl): 536 nm
SMILES: CCOCCOCCOC(=O)/C=C/C1=CC2=C(c3c(C)cc(C)cc3C)c3cccn3[B-](F)(F)[N+]2=C1

absorption maximum (in ClC(Cl)Cl): 388 nm
SMILES: c1ccc(-c2nc(-c3ccccn3)sc2N(c2ccccc2)c2ccccc2)cc1

SMILES: COc1ccc2c(c1)c1cc(OC)ccc1n2-c1nc2ccccc2nc1-n1c2ccc(OC)cc2c2cc(OC)ccc21
absorption maximum (in Cc1ccccc1): 437 nm

absorption maximum (in O): 274 nm
SMILES: [NH3+]C(Cc1ccc(O)cc1)C(=O)[O-] (stereo unspecified)

absorption maximum (in CS(C)=O): 366 nm
absorption maximum (in ClCCl): 365 nm
SMILES: CC(C)(C)OC(=O)COc1ccc2c(c1)oc(=O)c1c(=O)oc3ccccc3c12

SMILES: CC1(C)c2ccccc2N(c2ccccc2)c2ccc(-c3ccc(S(=O)(=O)c4ccc(-c5ccc6c(c5)C(C)(C)c5ccccc5N6c5ccccc5)cc4)cc3)cc21
absorption maximum (in Cc1ccccc1): 363.38 nm

SMILES: COc1ccc(/C=C/C2=[O+][B-](F)(F)OC(/C=C/c3ccc(OC)cc3)=C2c2ccccc2)cc1
absorption maximum (in CC#N): 500 nm
absorption maximum (in CC(C)=O): 500 nm
absorption maximum (in CCOC(C)=O): 496 nm
absorption maximum (in CCOCC): 491 nm
absorption maximum (in ClC(Cl)(Cl)Cl): 493 nm
absorption maximum (in ClCCl): 505 nm

SMILES: Cc1cc(C2(c3cc(C)c(O)c(Br)c3)OS(=O)(=O)c3ccccc32)cc(Br)c1O
absorption maximum (in C1CCOC1): 396 nm
absorption maximum (in C1COCCO1): 396 nm
absorption maximum (in CC#N): 398 nm
absorption maximum (in CC(C)(C)O): 411 nm
absorption maximum (in CC(C)=O): 394 nm
absorption maximum (in CC(C)O): 413 nm
absorption maximum (in CCCCCO): 417 nm
absorption maximum (in CCCO): 415 nm
absorption maximum (in CCO): 414 nm
absorption maximum (in CCOC(C)=O): 395 nm
absorption maximum (in CCOCC): 395 nm

absorption maximum (in ClCCl): 370 nm
SMILES: CCn1c2cc(-c3cccs3)ccc2c2ccc(-c3cccs3)cc21

SMILES: c1cc2ccc3ccc4cc3c2cc1CCCCCCc1ccc2ccc3ccc-4cc3c2c1
absorption maximum (in Cc1ccccc1): 336 nm

absorption maximum (in CO): 450 nm
SMILES: O=C1C=C(Nc2ccccc2[N+](=O)[O-])C(=O)c2ccccc21

SMILES: CCCCCCC(CCCCCC)N1C(=O)c2cccc3c(-c4ccc(OC)c5cccc(C)c45)ccc(c23)C1=O
absorption maximum (in CCCCCC): 326.6 nm
absorption maximum (in CCCCCCCCCCCCCC): 327 nm
absorption maximum (in CCCCCCCCCCCO): 329 nm
absorption maximum (in CCCCO): 327.8 nm
absorption maximum (in CN(C)C=O): 328.8 nm
absorption maximum (in Cc1ccccc1): 328.8 nm
absorption maximum (in ClC(Cl)Cl): 329 nm

absorption maximum (in ClCCl): 672 nm
SMILES: COc1c2ccccc2c(OC)c2c(C#CC(C)(C)C)c3cc4ccccc4cc3c(C#CC(C)(C)C)c12

SMILES: CCOCCC1=Cc2nc1ccc1[nH]c(cc1CCOCC)c1nc(ccc3[nH]c2cc3CCOCC)C(CCOCC)=C1
absorption maximum (in Cc1ccccc1): 638 nm

absorption maximum (in CO): 436 nm
SMILES: CC1=CC(Br)=CN2C[n+]3cc(Br)cc(C)c3N=C12
